According to patent US9121806B1, “Impedance spectroscopy-based cellular analysis device” (University of South Florida, priority 2007, dated 2015):

System: OvCa429 cells
Test: Effect of trypsin on confluent OvCa429 cell culture monitored by impedance phase angle mapping
Assay type: cell-based
Conditions: 20 μl of trypsin added to culture medium after 5 h of monitoring, approximately 80% confluence, monitored over 18 h
Protocol: Ovarian cancer line OvCa429 were grown in M199 and MCDB 105 (1:1) (Sigma, St Louis, Mo.) supplemented with 10% fetal calf serum (Sigma), 2 mM L-glutamine, 100 units ml-1 penicillin and 100 μgml-1 streptomycin under 5% CO2, and 37 .C high-humidity atmosphere. The cell culture medium was changed every 2-3 days, depending on the rate of cell growth. Cells were sub-cultured using 1× trypsin solution directly on the multielectrode device Impedance data were taken at room temperature of about 22° C. After each recording the cells were placed back in to the incubator. The cell culture medium was not changed throughout the course of the experiment. Impedance measurements were recorded on two separate devices (control and variable) beginning at approximately 80% confluence of the OvCa culture. After 5 h of recording measurements at an interval of approximately 1 h, 20 μl of trypsin was added to the cell culture medium of variable. Trypsin was not added to the control. The impedance was recorded under room conditions and the devices were placed back in the incubator after each measurement frame.
In order to affirm the utility of impedance mapping for tracking physiological changes, the effect of trypsin on the confluent cell culture was analyzed. […] FIG. 6 is the phase angle mapping of control and trypsinized cultures monitored over a period of 18 h.

Substance: trypsin
- effect of trypsin on the confluent cell culture (phase angle shape / cell detachment): detached the cells from the substrate
